The text below walks through data of US5500427A, “Cyclic compounds and their use” (Takeda Chemical Industries, Ltd., priority 1992, dated 1996).

Experiment [1] addresses T1, angiotensin II receptor (Bos taurus, UniProt P25104).
T1 construct: An A-II receptor membrane fraction was prepared from bovine adrenal cortex; from tissue; host or cells: bovine adrenal cortex membrane fraction
T1 sequence (P25104 1-359): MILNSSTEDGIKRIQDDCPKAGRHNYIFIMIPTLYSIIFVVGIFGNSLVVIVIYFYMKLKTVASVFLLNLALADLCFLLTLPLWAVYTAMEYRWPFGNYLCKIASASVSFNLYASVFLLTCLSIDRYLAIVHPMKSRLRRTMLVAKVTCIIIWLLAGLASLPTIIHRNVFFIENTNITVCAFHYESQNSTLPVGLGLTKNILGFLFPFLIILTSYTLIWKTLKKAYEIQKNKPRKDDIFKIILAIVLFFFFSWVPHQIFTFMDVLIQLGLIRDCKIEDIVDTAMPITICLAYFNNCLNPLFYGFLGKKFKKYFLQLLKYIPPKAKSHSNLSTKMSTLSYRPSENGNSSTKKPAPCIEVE
The experiment in a line: Inhibitory Effect of Binding of Angiotensin-II to Angiotensin II Receptor (radioreceptor assay). The note with it: 125I-angiotensin II, bovine adrenal cortex membrane, room temperature, one hour; for inhibition at 1 µM: 10^-6 M; for inhibition at 0.1 µM: 10^-7 M. As to the method:
Inhibitory Effect of Binding of Angiotensin-II to Angiotensin II Receptor
An experiment of inhibition on the binding of angiotensin II (A-II) receptor was performed by modified the method of Douglas et al. [Endocrinology, 102, 685-696 (1978)]. An A-II receptor membrane fraction was prepared from bovine adrenal cortex.
The compound of the present invention (10^-6 M or 10^-7 M) and ^125 I-angiotensin II (^125 I-AII) (2.44 KBq/50 microliter) were added to the receptor membrane fraction, and the mixture was incubated at room temperature for one hour. The receptor-bound and free I-AII were separated through a filter (Whatman GF/B filter), and the radioactivity of ^125 I-AII bound to the receptor was determined.

The subject of experiment [2] is AII-induced Pressor Response. The experiment in a line: Inhibitory Effect of the Compound of the Present Invention on AII-induced Pressor Response. The conditions noted are these: A-II 100 ng/kg i.v., male Jcl:SD rats. It counts as in vivo. An excerpt: Inhibitory Effect of the Compound of the Present Invention on AII-induced Pressor Response
Jcl:SD rats (9 week old, male) were used. On the previous day of the experiment, rats were applied with cannulation into the femoral artery and vein under anesthesia with pentobarbital Na. These animals were fasted but allowed to access freely to drinking water until the experiment was started. Just on the day of conducting the experiment, the artery cannula was connected with a blood-pressure transducer, and the average blood pressure was recorded by polygraph. Before administration of the drug, the pressor action due to intravenous administration of A-II (100 ng/kg) as the control was determined. The drugs were orally administered, then, at each point of the determination, A-II was administered intravenously, and the pressor action was similarly determined. By comparing the pressor action before and after administration of the drug, the percent inhibition by the drug was evaluated.

With `CCCN(Cc1ccc(-c2ccccc2-c2noc(=O)[nH]2)cc1)c1ncccc1C(=O)O` [Example 2], in experiment [1], the inhibition (usually the percentage by which the read-out fell short of the control) at 1 µM is 52% and the inhibition at 0.1 µM was 17%. Besides, in experiment [2] (0.3 mg/kg p.o.), the “Pressor Response [p.o.] (percent inhibition of A-II pressor action)” value is “+++ (+++ ≥ 70%)”. Moreover, in experiment [2] (1 mg/kg p.o.), the “Pressor Response [p.o.] (percent inhibition of A-II pressor action)” value is reported as “+++ (+++ ≥ 70%)”.

In experiment [1], `CCCN(Cc1ccc(-c2ccccc2-c2nsc(=O)[nH]2)cc1)c1ncccc1C(=O)O` [Example 4] yielded an inhibition at 1 µM of 61% and an inhibition at 0.1 µM of 20%. The “Pressor Response [p.o.] (percent inhibition of A-II pressor action)” value in experiment [2] (1 mg/kg p.o.) was “+++ (+++ ≥ 70%)”.

Regarding `CCCCN(Cc1ccc(-c2ccccc2-c2nc(=O)o[nH]2)cc1)c1ncccc1C(=O)O` [Example 6, 2-[N-butyl-N-[2'-(2,5-dihydro-5-oxo-1,2,4-oxadiazol-3-yl)biphenyl-4-yl]methylamino]pyridine-3-carboxylic acid], in experiment [1], at 1 µM the inhibition was 55% and 0.1 µM produced 16% inhibition. Besides, the “Pressor Response [p.o.] (percent inhibition of A-II pressor action)” value in experiment [2] (1 mg/kg p.o.) is “+++ (+++ ≥ 70%)”.
